From publication PMC7287882, “Dual miRNases for Triple Incision of miRNA Target: Design Concept and Catalytic Performance” (Molecules, 2020)

Tests used:
[1] = tested on: miR-155; assay: Gel-retardation assay, hybridization with miR-155; format: binding; settings: 37 °C, 45 min, mean of 3
Description: (§1) We carried out a comparative analysis of the hybridization properties of the developed DCs with the corresponding SCs, which were the products of the first stage of the DCs synthesis. As discussed above, each SC consisted of the corresponding oligonucleotide A, which was complementary to the 5′-region of the matching miRNA target, and the catalytic peptide [LRLRG]2, attached to the 5′-end of this oligonucleotide via a thiohexyl linker (linker 2). […] Indeed, the level of binding of DCs to their miRNA targets reached 96, 90, 75, 55% at equimolar concentration (1 μM), and 99, 96, 92 and 69% at 5-fold excess of DCs over miR-17, miR-18a, miR-21 and miR-155, respectively (Figure 2). […]
(§2) The reaction mixture (4 µL) containing 50 mM Tris-HCl, pH 7.0, 200 mM KCl and 1 mM EDTA, 100 cpm (Cherenkov’s counting) of [^32P]-miRNA, 1 μM unlabeled miRNA, a conjugate at a concentration ranging from 0.1 to 10 μM was incubated at 37 °C for 45 min and quenched by adding of a loading buffer (20% ficoll, 0.025% bromophenol blue, 0.025% xylene cyanol). […] Formation of the complex miRNA/conjugate was analyzed by electrophoresis in 15% native PAAG at 4 °C. The gels were analyzed using Molecular Imager FX. The extent of binding of conjugate to miRNA was determined as a ratio of radioactivity measured in the complex to the total radioactivity applied onto the gel lane.

[2] = tested on: miR-17; assay: Ribonuclease activity assay, cleavage of miR-17; format: biochemical; settings: miRNA 1 µM, DC 20 µM, 37 °C
Protocol: The ribonuclease activity of DCs was studied under two different buffer conditions: buffer (1) contained 50 mM Tris-HCl, pH 7.0, 200 mM KCl, 1 mM EDTA, which imitates intracellular conditions (e.g., pH and potassium ions concentration) and was used in a number of studies previously; and buffer (2) contained 20 mM Tris-HCl, pH 7.8, 40 mM KCl, 8 mM MgCl2, 1 mM DTT, 0.02 mg/mL BSA, which is recommended for in vitro reactions with RNase H (Figure 3 and Figure 4).
Figure 3 Kinetics of cleavage of 5′-[^32P]-labeled miR-17, miR-18a, miR-155, miR-21 and miR-21_1 by corresponding DCs in the buffer (1), containing 50 mM Tris-HCl, pH 7.0, 200 mM KCl and 1 mM EDTA. (a–e) Radioautographs of 18% denaturing PAAG showing the cleavage products of miR-17, miR-18a, miR-155, miR-21 and miR-21_1, respectively. miRNA (1 µM) and corresponding DC (20 µM) were incubated at 37 °C for 72 h. Lanes Im and T1—imidazole ladder and partial RNA digestion with RNase T1, respectively; control–miRNA was incubated in the absence of the conjugate. The incubation time (in hours) is show at the top. SS gap–single-stranded region of miRNA formed upon hybridization with DC; (f) Kinetics of miRNAs cleavage by DCs depending on the incubation time. Data are presented as mean ± s.e.
Figure 4 Kinetics of cleavage of 5′-[^32P]-labeled miR-17, miR-18a, miR-155, miR-21, and miR-21_1 by corresponding DCs in the buffer (2), containing 20 mM Tris-HCl, pH 7.8, 40 mM KCl, 8 mM MgCl2, 1 mM DTT, 0.02 mg/mL BSA. (a–e) Radioautographs of 18% denaturing PAAG showing the cleavage products of miR-17, miR-18a, miR-155, miR-21 and miR-21_1, respectively. miRNA (1 µM) and corresponding DC (20 µM) were incubated at 37 °C for 72 h. Lanes Im and T1–imidazole ladder and partial RNA digestion with RNase T1, respectively; control–miRNA was incubated in the absence of the conjugate. The incubation time (in hours) is shown at the top. SS gap–single-stranded region of miRNA formed upon hybridization with DC; (f) Kinetics of miRNAs cleavage by DCs. Data are presented as mean ± s.e.
The reaction mixture (10 µL) contained 800 cpm (Cherenkov’s counting) of [^32P]-miRNA, 1 μM unlabeled miRNA, one of the conjugates at a concentration 10 or 20 μM and one of the buffers: 50 mM Tris-HCl, pH 7.0, 200 mM KCl, 1 mM EDTA–buffer (1) or 20 mM Tris-HCl, pH 7.8, 40 mM KCl, 8 mM MgCl2, 1 mM DTT, 0.02 mg/mL BSA–buffer (2). The mixture was incubated at 37 °C for 0–72 h and quenched by precipitation of RNA with 2% LiClO4 in acetone (90 µL). RNA was collected by centrifugation and dissolved in loading buffer (8 M urea, 0.025% bromophenol blue, 0.025% xylene cyanol). RNA cleavage products were analyzed in 18% PAAG/8M urea using TBE (100 mM Tris-borate, pH 8.3, 2 mM EDTA) as running buffer. To identify cleavage sites, an imidazole and T1-ladders produced by partial RNA cleavage with 2 M imidazole buffer (pH 7.0) and with RNase T1 [68], respectively, were run in parallel. To obtain quantitative data, gels were dried and analyzed using Molecular Imager FX. The total extent of RNA cleavage and the extent of RNA cleavage at each individual site were determined by using Quantity One software v.4.1 (Bio-Rad, Hercules, CA, USA).

[3] = tested on: miR-18a; assay: Gel-retardation assay, hybridization with miR-18a; format: binding; settings: 37 °C, 45 min, mean of 3
Description: as §1, §2

[4] = 5-fold excess of DC over miRNA (1 µM), same buffer
[5] = equimolar, DC 1 µM : miRNA 1 µM, 50 mM Tris-HCl pH 7.0, 200 mM KCl, 1 mM EDTA

Substance: ACCCCTAT–linker 1–[GRLRL]2–linker 2–TTAGCATTAA [miRNA-155-DC, Dual oligonucleotide-peptide conjugate targeted to miR-155: catalytic peptide [LRLRG]2 between two 2-aminoadenine-containing oligodeoxyribonucleotides]
- level of binding of DC to miRNA target [1, 4]: 69%
- level of binding of DC to miRNA target [1, 5]: 55%

Substance: CTACCTGC–linker 1–[GRLRL]2–linker 2–AAGCACTTTG [miRNA-17-DC, Dual oligonucleotide-peptide conjugate targeted to miR-17: catalytic peptide [LRLRG]2 between two 2-aminoadenine-containing oligodeoxyribonucleotides]
- Total Cleavage ([2]; buffer (1) 50 mM Tris-HCl pH 7.0, 200 mM KCl, 1 mM EDTA, 2 h): 0%
- Total Cleavage ([2]; buffer (1) 50 mM Tris-HCl pH 7.0, 200 mM KCl, 1 mM EDTA, 6 h): 0%
- Total Cleavage ([2]; buffer (1) 50 mM Tris-HCl pH 7.0, 200 mM KCl, 1 mM EDTA, 24 h): 1%
- Total Cleavage ([2]; buffer (1) 50 mM Tris-HCl pH 7.0, 200 mM KCl, 1 mM EDTA, 48 h): 2%
- Total Cleavage ([2]; buffer (1) 50 mM Tris-HCl pH 7.0, 200 mM KCl, 1 mM EDTA, 72 h): 5%
- Total Cleavage ([2]; buffer (2) 20 mM Tris-HCl pH 7.8, 40 mM KCl, 8 mM MgCl2, 1 mM DTT, 0.02 mg/mL BSA, 2 h): 1,5%
- Total Cleavage ([2]; buffer (2) 20 mM Tris-HCl pH 7.8, 40 mM KCl, 8 mM MgCl2, 1 mM DTT, 0.02 mg/mL BSA, 6 h): 4%
- Total Cleavage ([2]; buffer (2) 20 mM Tris-HCl pH 7.8, 40 mM KCl, 8 mM MgCl2, 1 mM DTT, 0.02 mg/mL BSA, 24 h): 18%
- Total Cleavage ([2]; buffer (2) 20 mM Tris-HCl pH 7.8, 40 mM KCl, 8 mM MgCl2, 1 mM DTT, 0.02 mg/mL BSA, 48 h): 32%
- Total Cleavage ([2]; buffer (2) 20 mM Tris-HCl pH 7.8, 40 mM KCl, 8 mM MgCl2, 1 mM DTT, 0.02 mg/mL BSA, 72 h): 40%
- rise of Kobs in buffer (2) compared to Kobs in buffer (1) [2]: 10 fold

Substance: TATCTGC–linker 1–[GRLRL]2–linker 2–ATGCACCTTA [miRNA-18a-DC, Dual oligonucleotide-peptide conjugate targeted to miR-18a: catalytic peptide [LRLRG]2 between two 2-aminoadenine-containing oligodeoxyribonucleotides]
- level of binding of DC to miRNA target [3, 4]: 96%
- level of binding of DC to miRNA target [3, 5]: 90%
